# Toxic doses and inconclusive results are not listed.
# Tested on: L1210 leukemia ip in BDF1 mice, survival T/C
# Assay: NCI In Vivo Anticancer Drug Screen. Data for tumor model L1210 Leukemia (intraperitoneal) in B6D2F1 (BDF1) mice
# Details: endpoint: mean survival time, higher = longer survival
# In short: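 Transplanted-tumor mice were given test agent; controls received vehicle only. Survival readings from the two groups were divided (treated over control).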
# [1] = dose: 100.0 mg/kg/injection, schedule: Q01DX009 (ip), vehicle: saline
# [2] = dose: 200.0 mg/kg/injection, schedule: Q01DX009 (ip), vehicle: saline
# [3] = dose: 400.0 mg/kg/injection, schedule: Q01DX009 (ip), vehicle: saline
structure (smiles),measurement,setting,value
O=C(CCCN1CCC2(CC1)C(=O)NCN2c1ccccc1)c1ccccc1,T/C,"dose: 10.0 mg/kg/injection, schedule: Q04DX003 (ip), vehicle: Klucel (hydroxypropylcellulose) (HPC)",96 % of control
same,T/C,"dose: 20.0 mg/kg/injection, schedule: Q04DX003 (ip), vehicle: Klucel (hydroxypropylcellulose) (HPC)",98 % of control
same,T/C,"dose: 40.0 mg/kg/injection, schedule: Q04DX003 (ip), vehicle: Klucel (hydroxypropylcellulose) (HPC)",101 % of control
Nc1ccnc(Br)c1,T/C,[1],103 % of control
same,T/C,"dose: 100.0 mg/kg/injection, schedule: Q04DX003 (ip), vehicle: saline",109 % of control
same,T/C,[2],100 % of control
same,T/C,"dose: 200.0 mg/kg/injection, schedule: Q04DX003 (ip), vehicle: saline",107 % of control
same,T/C,[3],101 % of control
same,T/C,"dose: 400.0 mg/kg/injection, schedule: Q04DX003 (ip), vehicle: saline",112 % of control
C=CCOCC(O)CN1CCC(C)CC1 (configuration not stated),T/C,"dose: 6.0 mg/kg/injection, schedule: Q04DX003 (ip), vehicle: Klucel (hydroxypropylcellulose) (HPC)",95 % of control
same,T/C,"dose: 12.0 mg/kg/injection, schedule: Q04DX003 (ip), vehicle: Klucel (hydroxypropylcellulose) (HPC)",95 % of control
same,T/C,"dose: 25.0 mg/kg/injection, schedule: Q04DX003 (ip), vehicle: Klucel (hydroxypropylcellulose) (HPC)",97 % of control
same,T/C,"dose: 50.0 mg/kg/injection, schedule: Q04DX003 (ip), vehicle: Klucel (hydroxypropylcellulose) (HPC)",98 % of control
same,T/C,"dose: 100.0 mg/kg/injection, schedule: Q04DX003 (ip), vehicle: Klucel (hydroxypropylcellulose) (HPC)",95 % of control
CC(=O)NS(=O)(=O)c1ccc(N=Cc2cc(Cl)cc(Cl)c2O)cc1,T/C,[1],111 % of control
same,T/C,[2],102 % of control
same,T/C,[3],102 % of control
BrCC1CCCO1 (configuration not stated),T/C,"dose: 25.0 mg/kg/injection, schedule: Q01DX009 (ip), vehicle: saline with Tween-80",106 % of control
same,T/C,"dose: 25.0 mg/kg/injection, schedule: Q04DX003 (ip), vehicle: saline with Tween-80",102 % of control
same,T/C,"dose: 50.0 mg/kg/injection, schedule: Q01DX009 (ip), vehicle: saline with Tween-80",90 % of control
same,T/C,"dose: 50.0 mg/kg/injection, schedule: Q04DX003 (ip), vehicle: saline with Tween-80",101 % of control
same,T/C,"dose: 100.0 mg/kg/injection, schedule: Q01DX009 (ip), vehicle: saline with Tween-80",89 % of control
same,T/C,"dose: 100.0 mg/kg/injection, schedule: Q04DX003 (ip), vehicle: saline with Tween-80",101 % of control
N#CCC(N)C(=O)O (configuration not stated),T/C,"dose: 50.0 mg/kg/injection, schedule: Q01DX001 (ip), vehicle: saline",90 % of control
same,T/C,"dose: 100.0 mg/kg/injection, schedule: Q01DX001 (ip), vehicle: saline",96 % of control
same,T/C,"dose: 200.0 mg/kg/injection, schedule: Q01DX001 (ip), vehicle: saline",96 % of control
CCCN=C(N)c1ccc(N=C(N)c2ccc(N=C(N)c3ccc(C(N)=NCCC)cc3)cc2)cc1,T/C,"dose: 15.0 mg/kg/injection, schedule: Q01DX Z (ip), vehicle: carboxymethylcellulose (CMC)",154 % of control
same,T/C,"dose: 30.0 mg/kg/injection, schedule: Q01DX Z (ip), vehicle: carboxymethylcellulose (CMC)",88 % of control
same,T/C,"dose: 50.0 mg/kg/injection, schedule: Q01DX Z (oral), vehicle: carboxymethylcellulose (CMC)",110 % of control
same,T/C,"dose: 100.0 mg/kg/injection, schedule: Q01DX Z (oral), vehicle: carboxymethylcellulose (CMC)",109 % of control
same,T/C,"dose: 200.0 mg/kg/injection, schedule: Q01DX Z (oral), vehicle: carboxymethylcellulose (CMC)",106 % of control
same,T/C,"dose: 400.0 mg/kg/injection, schedule: Q01DX Z (oral), vehicle: carboxymethylcellulose (CMC)",109 % of control
Cc1ccc(S(=O)(=O)N=S(CCCl)CCCl)cc1,T/C,"dose: 100.0 mg/kg/injection, schedule: Q04DX002 (ip), vehicle: saline",92 % of control
same,T/C,"dose: 200.0 mg/kg/injection, schedule: Q04DX002 (ip), vehicle: saline",99 % of control
same,T/C,"dose: 400.0 mg/kg/injection, schedule: Q04DX002 (ip), vehicle: saline",101 % of control
CC1(C)C(=O)Nc2ccccc2N1C(=O)CN1CCCC1,T/C,"dose: 9.37 mg/kg/injection, schedule: Q01DX009 (ip), vehicle: acetone",97 % of control
same,T/C,"dose: 18.75 mg/kg/injection, schedule: Q01DX009 (ip), vehicle: acetone",88 % of control
same,T/C,"dose: 37.5 mg/kg/injection, schedule: Q01DX009 (ip), vehicle: acetone",98 % of control
same,T/C,"dose: 37.5 mg/kg/injection, schedule: Q04DX003 (ip), vehicle: saline",100 % of control
same,T/C,"dose: 75.0 mg/kg/injection, schedule: Q01DX001 (ip), vehicle: saline",102 % of control
same,T/C,"dose: 75.0 mg/kg/injection, schedule: Q04DX003 (ip), vehicle: saline",91 % of control
same,T/C,"dose: 150.0 mg/kg/injection, schedule: Q01DX001 (ip), vehicle: saline",109 % of control

# From PubChem BioAssay AID248 (DTP/NCI, 2004)
